{
  "source": "paper PMC6222606",
  "about": "“Biodegradation of 7-Hydroxycoumarin in Pseudomonas mandelii 7HK4 via ipso-Hydroxylation of 3-(2,4-Dihydroxyphenyl)-propionic Acid” (Molecules : A Journal of Synthetic Chemistry and Natural …, 2018)",
  "target": "T1, HcdB (Pseudomonas mandelii, UniProt A0A385IUB9)",
  "T1 sequence (A0A385IUB9 1-186)": "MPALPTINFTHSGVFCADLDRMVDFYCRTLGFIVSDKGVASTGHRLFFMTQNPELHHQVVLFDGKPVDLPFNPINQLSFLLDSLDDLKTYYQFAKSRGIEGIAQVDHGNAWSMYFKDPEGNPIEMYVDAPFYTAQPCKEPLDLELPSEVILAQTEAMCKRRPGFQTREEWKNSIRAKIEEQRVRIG",
  "experiment": "whole-cell bioconversion, UV-VIS of yellow meta-cleavage product; cells without hcdB inactive",
  "format": "cell-based",
  "details": "[…] potassium phosphate pH […] °C, […] substrate",
  "data": [
    {"smiles": "Oc1ccccc1O", "note": "[pyrocatechol]", "values": [
      {"measurement": "whole-cell bioconversion, UV-VIS of yellow meta-cleavage product; cells without", "result": "HcdB is capable oxidizing pyrocatechol, 3-methylcatechol, 3-methoxycatechol, 4-methylcatechol"}
    ]}
  ]
}
